“Also recorded” adds a separate entry of the source. Like-named read-outs stand apart in the source and are kept apart here.
Key:
[1] = tested on: BALB/c mice with LPS-induced ARDS; details: cited from earlier work
[2] = tested on: Nrf2 (+/+) primary peritoneal macrophages; details: cited from earlier work
[3] = tested on: LPS-challenged macrophages; details: pre-incubated 6 h (0 to 50 μM), LPS 24 h; cited from earlier work
Tissue Factor = test: TNF-alpha induced Tissue Factor expression in HUVEC, flow cytometry; type: cell-based, human; details: TNF-alpha stimulation 48 hours
Description: In the experiments below, human umbilical vein endothelial cells (HUVEC) where purchased from AllCells and grown in Opti-MEM media with complete fetal calf serum. Cells were stimulated with the indicated concentrations of TNF-alpha for 48 hours and incubated with the indicated concentrations of individual components of QuadraMune™ as well as the combination. Quantification of Tissue Factor was performedby flow cytometry and expressed as mean fluorescent intensity (MFI).

[4] = tested on: mice challenged with endotoxin (LPS O111:B4) or live Escherichia coli; details: cited from earlier work; for concentration of IL-1α: controls 1187.0±278.64
[5] = tested on: lipopolysaccharide-induced inflammatory reactions; details: cited from earlier work
[6] = tested on: lipopolysaccharide-activated macrophages; details: cited from earlier work
C57BL6 mice = details: 10 mg/kg intraperitoneally, 72 h after CL2P; cited from earlier work
[7] = tested on: mice with LPS-induced ARDS; details: 10 mg/kg ip; cited from earlier work
[8] = tested on: nuclear factor-κB (NF-κB); details: macrophage foam cells; cited from earlier work
mice = details: cited from earlier work
male Sprague-Dawley rats = details: 10 mg/kg intraperitoneally at 1 and 6 h after CL2P and every 12 h; cited from earlier work
[9] = tested on: mice with experimental colitis; details: 50 and 100 mg/kg/day; cited from earlier work
[10] = tested on: rats subjected to myocardial ischemia and reperfusion; details: 10 mg/kg intravenously then 10 mg/kg/h infusion; cited from earlier work
[11] = tested on: interleukin-1, interleukin-6, interleukin-8, TNF-alpha; details: cited from earlier work
[12] = tested on: lectin-like oxLDL receptor-1 (LOX-1); details: in vitro and in vivo; cited from earlier work
apoE(−/−) mice = details: injection; cited from earlier work
[13] = tested on: human umbilical vein VECs (HUVECs); details: oxLDL 200 μg/ml; cited from earlier work
NK cell = test: Nanostilbene in cancer patients: NK cell activity and interferon gamma production; type: in vivo, human; details: pterostilbene administered in the form of nanostilbene in cancer patients
[14] = animal studies; cited from earlier work
[15] = 50 mg/kg, LPS 5 mg/kg 3 days later

C[S+]([O-])CCCCN=C=S (stereo not drawn) [sulforaphane, 1-isothiocyanato-4-(methylsulfinyl)-butane]
serum levels of IL-6 and TNF-α, nuclear factor-κB protein expression ([1]; 50 mg/kg, ELISA): significantly decreased | lactate dehydrogenase (LDH) activity [1, 15]: significantly decreased | wet-to-dry ratio of the lungs [1, 15]: significantly decreased | PGE2 production, COX-2 and MMP-9 protein expression, iNOS activity ([1]; 50 mg/kg): significantly inhibited | Nrf2/antioxidant response element (ARE) pathway ([1]; pre-treatment): activated | HO-1 expression ([2]; LPS-stimulated Nrf2 (+/+) macrophages): significantly augmented | LPS-stimulated mRNA expression, protein expression and production of TNF-alpha, IL-1beta, COX-2 and iNOS ([2]; pretreatment, Nrf2 (+/+) macrophages): potently inhibited | expression of NO and cytokines [3]: able to prevent the expression of NO and cytokines | TNF-alpha induced Tissue Factor expression (mean fluorescent intensity) (Tissue Factor): reduction of TNF-alpha induced Tissue Factor expression | TNF-alpha induced Tissue Factor expression (mean fluorescent intensity) (Tissue Factor; listed as Sulforaphane): reduces inflammation induced tissue factor expression

CC1=CC(=O)C(C(C)C)=CC1=O [thymoquinone]
concentration of IL-1α ([4]; 0.75 mg/kg dose): 310.8 ± 70.93 pg/mL | IL-10 levels ([4]; 0.75 mg/kg, controls 5505.2±333.96): 2885.0 ± 553.98 pg/mL | concentration of IL-1α ([4]; 1 mg/kg group): 428.3 ± 71.32 pg/mL | levels of TNF-α and IL-2 ([4]; P values=0.1817 and 0.0851): relatively lower levels of TNF-α and IL-2 | reduction of mortality ([4]; mice, sepsis): 80-90% | renal and hepatic biomarker profiles ([4]; mice, sepsis): improved both renal and hepatic biomarker profiles | lipopolysaccharide-induced inflammatory reactions [5]: suppressed effectively the lipopolysaccharide-induced inflammatory reactions | concentration of nitric oxide ([5]; marker of inflammation): reduced significantly the concentration of nitric oxide | TNF-alpha induced Tissue Factor expression (mean fluorescent intensity) (Tissue Factor): reduction of TNF-alpha induced Tissue Factor expression | TNF-alpha induced Tissue Factor expression (mean fluorescent intensity) (Tissue Factor; listed as Thymoquinone): reduces inflammation induced tissue factor expression

epigallocatechin-3-gallate [EGCG]
activation of nuclear factor-kappaB ([6]; electrophoretic mobility shift assay): blocked the activation of nuclear factor-kappaB | nitric oxide (NO) generation ([6]; marker of activated macrophages): inhibit nitric oxide (NO) generation | survival (C57BL6 mice): significantly improved | expression of TNF-α, IL-1β and IL-6 in lung, serum and bronchoalveolar lavage fluid [7]: significantly decreased | TNF-α-induced NF-κB activity [8]: inhibition of the TNF-α-induced nuclear factor-κB (NF-κB) activity | rescue from lethal sepsis (mice; first dose 24 hours after cecal ligation and puncture): rescued mice from lethal sepsis | protection against lethal endotoxemia (mice; intraperitoneal administration): protected mice against lethal endotoxemia | TNF-alpha induced Tissue Factor expression (mean fluorescent intensity) (Tissue Factor): reduces inflammation induced tissue factor expression; also recorded: reduction of TNF-alpha induced Tissue Factor expression | hypotension (mean arterial blood pressure) (male Sprague-Dawley rats): significantly improved | plasma levels of IL-10 and TGF-β1 [9]: increasing the plasma levels of IL-10 and TGF-β1 | release of IL-6 and IL-17 [9]: reduce the release of IL-6 and IL-17 | myocardial damage and myeloperoxidase activity [10]: reduced myocardial damage and myeloperoxidase activity | plasma IL-6 and creatine phosphokinase levels [10]: decreased

trans-3,5-dimethoxy-4-hydroxystilbene [pterostilbene]
inhibition of inflammatory cytokines (interleukin-1, interleukin-6, interleukin-8, TNF-alpha) [11]: inhibit inflammatory cytokines associated with ARDS | LOX-1 expression [12]: inhibited the expression of lectin-like oxLDL receptor-1 (LOX-1) | number of TUNEL-positive cells in the endothelium of atherosclerotic plaque (apoE(−/−) mice): strongly decreased the number of TUNEL-positive cells | protection against oxLDL-induced cell shrinkage, chromatin condensation, nuclear fragmentation, apoptosis [13]: protected against such injuries | TNF-alpha induced Tissue Factor expression (mean fluorescent intensity) (Tissue Factor): reduction of TNF-alpha induced Tissue Factor expression | TNF-alpha induced Tissue Factor expression (mean fluorescent intensity) (Tissue Factor; listed as Pterostilbene): reduces inflammation induced tissue factor expression | NK cell activity (NK cell): increased NK cell activity | interferon gamma production (NK cell): increased | bioavailability [14]: 80%

Reference: patent publication US20220143123A1, “Prevention of Pathological Coagulation in COVID-19 and other Inflammatory Conditions” (priority 2020, published 2022)
